The values that follow come from patent publication EP0885869A1, “THERAPEUTIC AGENT FOR DIABETES” (Japan Tobacco Inc., priority 1996, dated 1997).

Read-outs that look alike come from different tables or passages of the source.

The test system of data set [1] is fasted rats. Put plainly: Glucose tolerance test using fasted rats. The class given is in vivo, Male Wistar rats. Conditions: for inhibition in vivo at 10 mg/kg / inhibition in vivo at 30 mg/kg / inhibition in vivo at 100 mg/kg / inhibition in vivo at 1 mg/kg: Rattus norvegicus, 30 min before glucose loading (1 g/kg i.p.); for inhibition in vivo at 10 mg/kg: dose 10 mg/kg oral; for inhibition in vivo at 30 mg/kg: dose 30 mg/kg oral; for blood glucose in hyperglycemia at 30 min after glucose loading / blood glucose level 120 min later when hyperglycemia was not observed: oral administration, versus control, Fig. 1 (Example 93), Fig. 2 (Example 65, various doses); for inhibition in vivo at 100 mg/kg: dose 100 mg/kg oral; for inhibition in vivo at 1 mg/kg: dose 1 mg/kg oral. As to the method: Glucose tolerance test using fasted rats
Glucose (1 g/kg) was intraperitoneally administered and blood (0.2 ml) was taken at 30, 60 and 120 minutes later from the tail vein. […] As a control, used was carboxymethylcellulose. The suppression of increase in blood glucose was expressed by inhibition ratio (%) in the group administered with test drug, relative to the increase in blood glucose in the control group at 30 min after glucose loading, which was taken as 100%. The blood glucose after 120 min was also shown by the ratio (%) of changes relative to the control.

In data set [2] the test system is fasted rats.
Data set [3] concerns fasted rats. Briefly: Effects on blood glucose level of fasted rats. Conditions: oral administration to rats fasted for 16 hr, blood at 30, 60 and 120 minutes; Fig. 4. The class given is in vivo, Male Wistar rats. As to the method: Effects on blood glucose level of fasted rats
As a control, used was carboxymethylcellulose, and blood glucose after administration of tolbutamide and the compounds of the present invention was determined.

Where [4] appears, read: 0.5 h, inhibition of increase in blood glucose relative to control at 30 min, read-out: ratio of decrease at 30 min later(%).
Setting [5] is: 2 h, blood glucose after 120 min, ratio of changes relative to control, read-out: ratio of decrease at 120 min later(%).

With `C[C@H]1CC[C@H](C(=O)CCC(=O)O)CC1` [Example 65, trans-4-(4-methylcyclohexyl)-4-oxobutanoic acid], in data set [1] (setting [4]), the inhibition in vivo at 10 mg/kg came out at 31.7% and the inhibition in vivo at 30 mg/kg is 41.2%. Moreover, in data set [1] (setting [5]), the inhibition in vivo at 10 mg/kg was 5% and the inhibition in vivo at 30 mg/kg came to 10.5%. For the same molecule, in data set [1], the “blood glucose in hyperglycemia at 30 min after glucose loading” value is listed as “tends to show significant decrease in the blood glucose level” and the “blood glucose level 120 min later when hyperglycemia was not observed” value is “does not unnecessarily lower the blood glucose level”.

In the case of `CC(=O)CCC(=O)c1ccc(-c2ccccc2)cc1` [Example 2, 1-(4-biphenylyl)-1,4-pentanedione], the inhibition in vivo at 100 mg/kg is 29.7% in data set [1] (setting [4]) and 3.8% in data set [1] (setting [5]).

Take `CCCCNC(=O)NS(=O)(=O)c1ccc(C)cc1` [tolbutamide]: the “effect as a therapeutic agent for diabetes for treating hyperglycemia” value in data set [2] (oral, in the dose that does not cause hypoglycemia, Fig. 3) is given as “did not show effective results”. Further, the “blood glucose 120 min later” value in data set [2] (rat, in vivo, po) is reported as “induced hypoglycemia”. Also, the fasting blood glucose result in data set [3] is “lowered the fasting blood glucose”.

On to `O=C1CC(C(=O)c2ccc(-c3ccccc3)cc2)CO1` (racemic) [Example 82, (±)-dihydro-4-(4'-phenylbenzoyl)-2(3H)-furanone], for which the inhibition in vivo at 1 mg/kg in data set [1] (setting [4]) is 24.6%; in data set [1] (setting [5]) it was -8.2%.

With `CC1(C(=O)c2ccc(-c3ccccc3)cc2)CCC(=O)O1` (single isomer, unassigned; (-)) [Example 93, (-)-dihydro-5-methyl-5-(4'-phenylbenzoyl)-2(3H)-furanone], in data set [1], the “blood glucose in hyperglycemia at 30 min after glucose loading” value was “significantly decreased the blood glucose” and the “blood glucose level 120 min later when hyperglycemia was not observed” value is given as “did not unnecessarily lower the blood glucose level”. For the same molecule, in data set [3], the fasting blood glucose result is “did not lower the fasting blood glucose”.

For `O=C(CC(C(=O)O)C(=O)O)c1ccc(-c2ccccc2)cc1` [Example 69, 2-[2-(4-biphenylyl)-2-oxoethyl]propanedioic acid], the inhibition in vivo at 1 mg/kg in data set [1] (setting [4]) was found to be 22.1%; in data set [1] (setting [5]), 4.9%. For the same molecule, the inhibition in vivo at 10 mg/kg is 24.6% in data set [1] (setting [4]) and 3% in data set [1] (setting [5]).

Consider `O=C(O)CCC(=O)C1CCCCC1` [Example 58, 4-cyclohexyl-4-oxobutanoic acid], for which, in data set [1] (setting [4]), the inhibition in vivo at 1 mg/kg was 12.5%, the inhibition in vivo at 10 mg/kg was 26.1% and the inhibition in vivo at 30 mg/kg is 26.7%. In data set [1] (setting [5]), the inhibition in vivo at 1 mg/kg is -0.9%, the inhibition in vivo at 10 mg/kg was determined as 4.8% and the inhibition in vivo at 30 mg/kg is -2.8%.

Take `O=C(O)CCC(=O)c1ccc(CO)cc1` [Example 49, 4-[4-(hydroxymethyl)phenyl]-4-oxobutanoic acid]: the results for the inhibition in vivo at 10 mg/kg in data set [1] (setting [4]) and in data set [1] (setting [5]) were 25.2% and 2.2%, respectively.

`O=C(O)CCC(=O)c1ccc(-c2ccccc2)cc1` [Example 47, 4-(4-biphenylyl)-4-oxobutanoic acid]: in data set [1] (setting [4]), the inhibition in vivo at 1 mg/kg worked out at 26.5%, the inhibition in vivo at 10 mg/kg was 20.7% and the inhibition in vivo at 30 mg/kg was 29.1%. Also, in data set [1] (setting [5]), the inhibition in vivo at 1 mg/kg stood at 14.7%, the inhibition in vivo at 10 mg/kg amounted to 4.7% and the inhibition in vivo at 30 mg/kg was 6.8%.

As for `O=C(O)CCC(=O)c1ccccc1` [Example 46, 4-oxo-4-phenylbutanoic acid], the inhibition in vivo at 1 mg/kg in data set [1] (setting [4]) amounted to 22.5%; in data set [1] (setting [5]), 10.3%. Further, the inhibition in vivo at 10 mg/kg in data set [1] (setting [4]) is 19.8%; in data set [1] (setting [5]), -7%.

For the molecule `CC(=O)CCC(=O)c1ccccc1` [Example 1, 1-phenyl-1,4-pentanedione], in data set [1] (setting [4]), the inhibition in vivo at 30 mg/kg is 18.9% and the inhibition in vivo at 100 mg/kg was 14.9%. In data set [1] (setting [5]), the inhibition in vivo at 30 mg/kg worked out at 4.1% and the inhibition in vivo at 100 mg/kg worked out at 1.1%.

Regarding `CC(=O)CCC(=O)C1(C)CCCCC1` [Example 6, 1-(1-methyl-1-cyclohexyl)-1,4-pentanedione], the inhibition in vivo at 100 mg/kg in data set [1] (setting [4]) turned out to be 19.8%; in data set [1] (setting [5]) it was 15%.

For the molecule `CC1(C(=O)CCC(=O)O)CCCCC1` [Example 61, 4-(1-methylcyclohexyl)-4-oxobutanoic acid], the inhibition in vivo at 30 mg/kg in data set [1] (setting [4]) is 31.5%; in data set [1] (setting [5]), -5.7%.

Regarding `CC(=O)CCC(=O)C1CCCCC1` [Example 5, 1-cyclohexyl-1,4-pentanedione], the inhibition in vivo at 100 mg/kg in data set [1] (setting [4]) worked out at 21.4%; in data set [1] (setting [5]), 7.3%.

With `O=C1CC(C(=O)c2ccccc2)CO1` (racemic) [Example 81, (±)-4-benzoyldihydro-2(3H)-furanone], in data set [1] (setting [4]), the inhibition in vivo at 1 mg/kg amounted to 23.7% and the inhibition in vivo at 10 mg/kg was found to be 20.7%. Besides, in data set [1] (setting [5]), the inhibition in vivo at 1 mg/kg stood at 1.7% and the inhibition in vivo at 10 mg/kg amounted to 6%.

In the case of `CC(=O)NCC(=O)c1ccccc1` [Example 80, 2-acetaminoacetophenone], the figures for the inhibition in vivo at 1 mg/kg in data set [1] (setting [4]) and in data set [1] (setting [5]) were 15.5% and -2.4%, respectively. Further, the inhibition in vivo at 10 mg/kg in data set [1] (setting [4]) was 12.4%; in data set [1] (setting [5]), -1.5%.

As for `O=C(O)CCC(=O)c1ccc2ccccc2c1` [Example 74, 4-(2-naphthyl)-4-oxobutanoic acid], the inhibition in vivo at 10 mg/kg in data set [1] (setting [4]) was 21.5%; in data set [1] (setting [5]), -0.2%.

As for `CC(=O)CCC(=O)c1ccc(CO)cc1` [Example 20, 1-(4-hydroxymethylphenyl)-1,4-pentanedione], the values for the inhibition in vivo at 30 mg/kg in data set [1] (setting [4]) and in data set [1] (setting [5]) were 21.3% and 10.7%, respectively.
